Experimental data published in PMC12592502, “Unraveling the mechanisms behind the enhanced efficacy of β-lactam-based sideromycins” (Communications Biology, 2025).
Values after ≈ are worked out from the molar mass of the structure shown. Like-named read-outs stand apart in the source and are kept apart here.

Assays:
[1] = molecular target: T1, PBP3 (Pseudomonas aeruginosa, UniProt G3XD46); assay: Membrane PBP binding assay, competition with Bocillin FL; details: for IC50 value ratio βL/SID-βL, PBP3: P. aeruginosa ATCC 27853, membrane
T1 construct: using bacterial membranes as the source of PBPs; endogenous in cells; host or cells: P. aeruginosa ATCC 27853 membrane preparation
Protocol: (§1) Membrane extracts containing PBPs were obtained as described above. Briefly, all species were grown in 1 L of TSB until the OD600 reached 0.9. The washed pellet was incubated with lysozyme (400 μg/mL), DNase (10 μg/mL) RNase(10 μg/mL) and anti-protease cocktail (200 mg/20 mL). Lysis was done with a French press (20,000 psi) and membrane protein were pelleted by ultracentrifugation steps (100,000 × g). The pellet was suspended in a minimal volume (300–500 μL) of KP 0.05 M buffer at pH 7. The protein concentration in the membrane preparations was determined with the Micro BCA TM Protein Assay Kit (Thermo Fisher Scientific, Rockford, IL) using bovine serum albumin as a standard.
(§2) The PBP binding assay was done as described previously[36],[56],[57]. For each antibiotic concentration tested, a quantity of 25 to 40 μg of membrane preparation was used as the source of PBPs, depending on the species. For the purified PaPBP3, 150 ng was used in the assay. First, increasing concentrations of the test antibiotic was added to the membrane or purified PaPBP3 preparations and incubated for 10 min at 30 °C. The reporter molecule Bocillin FL was then added at 12.5 μM for the membrane PBPs preparations and at 500 nM for the pure PaPBP3 samples for an additional 20 min at 30 °C. All reactions were stopped with the addition of the Laemmli-loading buffer (Bio-Rad) containing fresh β-mercaptoethanol (Sigma). All reactions were then heated at 100°C for 3 min before migration on SDS-polyacrylamide discontinuous gel system (7.5% stacking and 10% separating). Control samples without Bocillin FL were also included to highlight autofluorescent proteins that are not PBPs.
(§3) To be able to visualize labeled PBPs after electrophoresis, gels were rinsed in water and fixed in a solution of 50% methanol and 7% acetic acid for 30 min. The fluorescent images of gels were obtained with the Typhoon FLA 9500 instrument (GE-Healthcare Bio-Sciences Inc., Baie-d’Urfé, QC, CA) using a 473 nm excitation wavelength. To obtain quantifiable data, the software Quantity One 1D analysis was used (version 4.6.6; Bio-Rad Laboratories, Richmond, CA). The volume (intensity × constant area) of each PBP was measured. […] All IC50 data were obtained from at least two independent PBP binding assays using two different sets of compound concentrations using a linear regression. The PBP profiles were confirmed, and the PBP numbering were determined using published data and individual molecular weights. […] For example, amdinocillin (Sigma) was used for PBP2 identification. […] The IC50 for PBP 2 of P. aeruginosa was measured by including the SDS-PAGE comigrating autofluorescent protein in the background, as done previously.

[2] = molecular target: T2, PBP2 (Pseudomonas aeruginosa, UniProt Q9X6V3); assay: as above
T2 construct: using bacterial membranes as the source of PBPs; endogenous in cells; host or cells: P. aeruginosa ATCC 27853 membrane preparation
T2 sequence (Q9X6V3 1-646): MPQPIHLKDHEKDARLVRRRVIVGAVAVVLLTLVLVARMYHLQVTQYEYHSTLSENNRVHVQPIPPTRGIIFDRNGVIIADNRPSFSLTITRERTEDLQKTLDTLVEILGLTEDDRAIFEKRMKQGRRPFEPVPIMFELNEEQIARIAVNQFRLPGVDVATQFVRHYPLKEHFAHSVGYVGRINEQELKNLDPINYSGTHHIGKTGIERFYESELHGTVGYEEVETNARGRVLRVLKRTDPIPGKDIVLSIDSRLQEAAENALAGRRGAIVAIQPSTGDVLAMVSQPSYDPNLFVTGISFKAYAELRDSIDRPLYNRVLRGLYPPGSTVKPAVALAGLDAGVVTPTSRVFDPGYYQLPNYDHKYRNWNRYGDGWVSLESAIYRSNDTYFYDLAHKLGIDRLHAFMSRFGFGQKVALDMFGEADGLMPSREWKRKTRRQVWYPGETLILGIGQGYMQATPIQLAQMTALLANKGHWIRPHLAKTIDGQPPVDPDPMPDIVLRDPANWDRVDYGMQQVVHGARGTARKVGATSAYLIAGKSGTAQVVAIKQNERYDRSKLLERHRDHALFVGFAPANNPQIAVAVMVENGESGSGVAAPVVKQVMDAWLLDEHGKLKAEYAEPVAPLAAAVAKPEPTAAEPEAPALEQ
Protocol: as §1, §2, §3

[3] = molecular target: T3, PBP1a (Pseudomonas aeruginosa, UniProt Q07806); assay: as above
T3 construct: using bacterial membranes as the source of PBPs; endogenous in cells; host or cells: P. aeruginosa ATCC 27853 membrane preparation
Protocol: as §1, §2, §3

[4] = system: P. aeruginosa ATCC 27853; assay: MIC, broth microdilution (CLSI); type: cell-based, Pseudomonas aeruginosa; details: for MIC in combination with PAβN: + 25 µg/mL PAβN
Protocol: All bacterial strains (see description and sources Table S1) were stored at −80 °C, and grown on tryptone soya agar (TSA) at 35 °C. The iron-deprived (ID)-MHBCA (cation-adjusted Muller-Hinton Broth, Becton Dickinson, Mississauga, ON, Canada) medium was prepared as reported by refs. [21],[50]. Briefly, MHBCA was treated with 10% Chelex® 50-100 mesh (Sigma) and stirred for 6 h at room temperature. The resin was removed by filtration. Divalent Ca^2+ (CaCl2), Mg^2+ (MgCl2), and Zn^2+(ZnSO4), were then added in the iron-depleted medium at 22, 12, and 1 μg/ml respectively. Finally, the pH was adjusted to 7.3, and the medium was sterilized with a 0.2-μm filter. Regular MHBCA (i.e., not treated with Chelex®) was used to compare the inhibitory activity of conjugates in iron-sufficient conditions.
Minimal inhibitory concentrations (MICs) were performed using a broth microdilution technique according to the Clinical and Laboratory Standards Institute (CLSI) guidelines. MICs were determined in MHBCA and in ID-MHBCA. To check the impact of β-lactamases, MICs in the presence of a β-lactamase inhibitor were also determined. The inhibitor was homogenized at 2X the final concentration and added to the bacterial inoculum just before distributing cells into the wells containing the drug dilutions. The final concentration of each inhibitor was 4 μg/mL for clavulanic acid (tested against K. pneumoniae) and 200 μg/mL for 3-aminophenylboronic acid (tested against P. aeruginosa and A. baumannii).

[5] = ID-MHBCA (−), 0 µg/mL supplemental iron, read-out: MIC
[6] = MHBCA (+), no inhibitor, read-out: MIC
[7] = Pseudomonas aeruginosa, ATCC27853, ID-MHBCA (−), 0 µg/mL supplemental iron, read-out: MIC
[8] = Pseudomonas aeruginosa, ATCC27853, ID-MHBCA + 1 µg/mL supplemental iron, read-out: MIC
[9] = Pseudomonas aeruginosa, ATCC27853, ID-MHBCA, + 200 μg/mL APB, read-out: MIC with β-lactamase inhibitor (βI)
[10] = Pseudomonas aeruginosa, ATCC27853, MHBCA (+), no inhibitor, read-out: MIC
[11] = Pseudomonas aeruginosa, ATCC27853, MHBCA, + 200 μg/mL 3-aminophenylboronic acid (APB), read-out: MIC with β-lactamase inhibitor (βI)
[12] = P. aeruginosa ATCC 27853 membranes, read-out: IC50 PBP3
[13] = P. aeruginosa ATCC 27853 membranes, read-out: IC50 PBP2
[14] = P. aeruginosa ATCC 27853 membranes, read-out: IC50 PBP1a
[15] = Pseudomonas aeruginosa, ATCC27853, ID-MHBCA + 0.1 µg/mL supplemental iron, read-out: MIC

T3 sequence (Q07806 whole entry): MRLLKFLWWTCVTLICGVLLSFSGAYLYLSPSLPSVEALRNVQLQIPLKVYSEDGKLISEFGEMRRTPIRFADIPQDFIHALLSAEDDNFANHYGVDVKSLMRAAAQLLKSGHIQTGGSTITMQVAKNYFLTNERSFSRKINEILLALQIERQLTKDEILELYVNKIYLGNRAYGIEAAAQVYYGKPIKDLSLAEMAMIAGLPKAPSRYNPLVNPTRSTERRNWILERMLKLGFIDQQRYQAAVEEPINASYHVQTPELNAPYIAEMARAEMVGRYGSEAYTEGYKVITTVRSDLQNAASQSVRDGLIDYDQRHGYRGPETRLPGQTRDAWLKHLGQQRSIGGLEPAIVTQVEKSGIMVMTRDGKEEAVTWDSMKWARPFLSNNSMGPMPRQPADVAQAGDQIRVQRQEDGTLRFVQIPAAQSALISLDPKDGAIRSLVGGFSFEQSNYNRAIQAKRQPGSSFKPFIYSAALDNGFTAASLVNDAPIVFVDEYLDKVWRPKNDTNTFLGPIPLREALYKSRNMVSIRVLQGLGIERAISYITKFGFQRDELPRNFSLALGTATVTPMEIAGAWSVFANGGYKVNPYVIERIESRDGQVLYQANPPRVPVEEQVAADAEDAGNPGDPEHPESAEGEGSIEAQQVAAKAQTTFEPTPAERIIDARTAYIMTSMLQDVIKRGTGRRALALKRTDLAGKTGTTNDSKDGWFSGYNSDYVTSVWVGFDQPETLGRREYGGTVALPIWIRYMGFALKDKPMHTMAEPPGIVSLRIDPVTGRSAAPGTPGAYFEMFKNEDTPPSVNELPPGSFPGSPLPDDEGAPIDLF
T1 sequence (G3XD46 whole entry): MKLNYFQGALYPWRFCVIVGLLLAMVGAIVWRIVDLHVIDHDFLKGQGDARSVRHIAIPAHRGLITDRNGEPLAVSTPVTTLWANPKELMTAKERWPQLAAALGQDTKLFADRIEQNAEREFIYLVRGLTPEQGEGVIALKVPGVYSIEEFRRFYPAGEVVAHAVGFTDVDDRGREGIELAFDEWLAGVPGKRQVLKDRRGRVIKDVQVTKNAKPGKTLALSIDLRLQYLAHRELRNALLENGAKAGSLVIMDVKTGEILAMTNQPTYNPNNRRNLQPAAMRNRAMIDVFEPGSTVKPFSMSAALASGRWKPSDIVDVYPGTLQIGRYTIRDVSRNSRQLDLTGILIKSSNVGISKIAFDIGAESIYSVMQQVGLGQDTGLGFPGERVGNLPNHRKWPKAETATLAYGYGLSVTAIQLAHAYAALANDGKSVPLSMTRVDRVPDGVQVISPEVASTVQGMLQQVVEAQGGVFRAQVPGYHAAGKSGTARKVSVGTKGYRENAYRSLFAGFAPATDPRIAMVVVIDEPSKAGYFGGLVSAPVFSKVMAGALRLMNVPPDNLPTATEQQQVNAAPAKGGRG

Row | SMILES | MIC [4, 5] [µM] | MIC [4, 6] [µM] | MIC in combination with PAβN ([4]; MHBCA) [µM] | MIC [4, 7] [µM] | MIC [4, 8] [µM] | MIC [4, 9] [µM] | MIC [4, 10] [µM] | MIC [4, 11] [µM] | IC50 value ratio βL/SID-βL, PBP3 [1] | IC50 [1, 12] [µM] | IC50 [2, 13] [µM] | IC50 [3, 14] [µM] | MIC ratio unconjugated β-lactam/conjugate ([4]; ID-MHBCA) | MIC ratio unconjugated β-lactam/conjugate ([4]; MHBCA) | MIC [4, 15] [µM] | further results
1 | CC1(C)S[C@@H]2[C@H](NC(=O)[C@H](N)c3ccccc3)C(=O)N2[C@H]1C(=O)O [AMP, ampicillin, reference compound] | >200 | >200 | > 200 | > 200 | > 200 | 100 | > 200 | 100 |  |  |  |  |  |  |  | IC50 [1]: 0.24 ± 0.08 µM; IC50 [2]: > 50 µM; IC50 [3]: 1.9 ± 1.5 µM
2 | CC1(C)SC2C(NC(=O)C(NC(=O)CN(CCCCNC(=O)c3cccc(O)c3O)C(=O)c3cccc(O)c3O)c3ccccc3)C(=O)N2C1C(=O)O (stereo not drawn) [BAMP, bis-catechol (azotochelin)-ampicillin] |  |  | 0.2 | 0.1 (≈ 0.075 µg/mL) | 13 | 0.1 | 1.6 (≈ 1.2 µg/mL) | 1.6 | 1.5 | 0.16 ± 0.01 | > 50 | 1.4 ± 0.7 | >2048 | >128 | 0.8 | potentiation of activity (MIC decrease) by PAβN ([4]; 25 µg/mL PAβN): 8 fold; MIC ratio 0/1 ([4]; ID-MHBCA, 0 and 1 µg/mL supplemental iron (Table S2)): 128; MIC ratio 1/0 ([4]; ID-MHBCA, 1 versus 0 µg/mL supplemental iron (peer review file table)): 128
3 | O=C(CN(CCCCNC(=O)c1cccc(O)c1O)C(=O)c1cccc(O)c1O)NC(C(=O)NC1C(=O)N2C(C(=O)O)=C(Cl)CCC12)c1ccccc1 (stereo not drawn) [BLOR, bis-catechol (azotochelin)-loracarbef] | >200 |  | > 200 | > 200 | > 200 | 0.8 | 13 (≈ 9.75 µg/mL) | 6.3 | > 16 | 3.2 ± 0.1 | 4.8 ± 3 | 0.58 ± 0.04 | No activity | >16 | > 200 | 
4 | N[C@@H](C(=O)N[C@@H]1C(=O)N2C(C(=O)O)=C(Cl)CS[C@H]12)c1ccccc1 [CEF, cefaclor, reference compound] | >200 | >200 | > 200 | > 200 | > 200 | > 200 | > 200 | > 200 |  | 39 ± 1.5 | > 50 | 33.9 ± 6.9 |  |  |  | 
5 | N[C@@H](C(=O)N[C@@H]1C(=O)N2C(C(=O)O)=C(Cl)CC[C@H]12)c1ccccc1 [LOR, loracarbef, reference compound] | >200 | >200 | > 200 |  |  |  |  |  |  | > 50 | > 50 | > 50 |  |  |  | MIC ([4]; ID-MHBCA + 1 µg/mL supplemental iron, read-out: MIC): > 200 µM; MIC ([4]; ID-MHBCA, + 200 μg/mL APB, read-out: MIC with β-lactamase inhibitor (βI)): >200 µM; MIC ([4]; MHBCA, + 200 μg/mL 3-aminophenylboronic acid (APB), read-out: MIC with β-lactamase inhibitor (βI)): >200 µM
6 | O=C(CCC(=O)N(CCCCNC(=O)c1cccc(O)c1O)CCCNC(=O)c1cccc(O)c1O)NCCCCCN(O)C(=O)CCCC(=O)NC(C(=O)NC1C(=O)N2C(C(=O)O)=C(Cl)CSC12)c1ccccc1 (stereo not drawn) [MCEF, mixed ligand bis-catechol-mono-hydroxamate-cefaclor] | >200 | >200 | > 200 | > 200 | > 200 | > 200 | > 200 | > 200 |  | 2.01 ± 0.48 | 6.74 ± 0.03 | 0.39 ± 0.35 | No activity | No activity |  | MIC ([4]; MHBCA (+), no inhibitor, listed as Mix-CEF, read-out: MIC): > 200 µM
